PubChem BioAssay AID2060600 (Molecular Pharmacology Branch, DTP, NCI, 2025)

Tested on: 996289-038-R-J1-PDC complex spheroid viability
Test: Anticancer human tumor 996289-038-R-J1-PDC patient-derived colon adenocarcinoma cell line growth inhibition [CLK]
Conditions: for IC50: curve of first compound; for viability, T/C: stronger effect = lower value
Procedure, shortened: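 Patient-derived tumor cells grown as complex spheroids with HUVEC endothelial cells and mesenchymal stem cells, treated with drug combinations. Concentrations descend in half-log steps from near clinical Cmax, or from 10 microM if Cmax unknown.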
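Also: spheroids exposed to the agents for 7 days before readout.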

SMILES: NC(=O)C(=Cn1cnc(-c2cc(C(F)(F)F)cc(C(F)(F)F)c2)n1)c1cncnc1 + CN1CCN(c2cc(C(=O)Nc3cc4cc(-c5cnn(C)c5)ccc4cn3)ccn2)CC1
- IC50 (second compound 0.0316 µM): 53.7 nM
- IC50 (second compound 0.1 µM): 29.4 nM
- IC50 (second compound 0.316 µM): < 9.49 nM
- IC50 (second compound 1 µM): < 9.49 nM
- IC50 (second compound 3.16 µM): < 9.49 nM
- IC50 (second compound 10 µM): < 9.49 nM
- viability, T/C (second compound 0.0316 µM, first compound 0.00949 µM): 73.6%
- viability, T/C (second compound 0.0316 µM, first compound 0.03 µM): 64%
- viability, T/C (second compound 0.0316 µM, first compound 0.0949 µM): 36.1%
- viability, T/C (second compound 0.0316 µM, first compound 0.3 µM): 18.6%
- viability, T/C (second compound 0.0316 µM, first compound 0.949 µM): 10.6%
- viability, T/C (second compound 0.0316 µM, first compound 3 µM): 11.7%
- viability, T/C (second compound 0.1 µM, first compound 0.00949 µM): 68%
- viability, T/C (second compound 0.1 µM, first compound 0.03 µM): 49.7%
- viability, T/C (second compound 0.1 µM, first compound 0.0949 µM): 24.9%
- viability, T/C (second compound 0.1 µM, first compound 0.3 µM): 11.1%
- viability, T/C (second compound 0.1 µM, first compound 0.949 µM): 4.64%
- viability, T/C (second compound 0.1 µM, first compound 3 µM): 5.12%
- viability, T/C (second compound 0.316 µM, first compound 0.00949 µM): 33.9%
- viability, T/C (second compound 0.316 µM, first compound 0.03 µM): 19.1%
- viability, T/C (second compound 0.316 µM, first compound 0.0949 µM): 2.74%
- viability, T/C (second compound 0.316 µM, first compound 0.3 µM): 0.87%
- viability, T/C (second compound 0.316 µM, first compound 0.949 µM): 1.43%
- viability, T/C (second compound 0.316 µM, first compound 3 µM): 1.38%
- viability, T/C (second compound 1 µM, first compound 0.00949 µM): 0.93%
- viability, T/C (second compound 1 µM, first compound 0.03 µM): 0.76%
- viability, T/C (second compound 1 µM, first compound 0.0949 µM): 0.81%
- viability, T/C (second compound 1 µM, first compound 0.3 µM): 1.31%
- viability, T/C (second compound 1 µM, first compound 0.949 µM): 1.15%
- viability, T/C (second compound 1 µM, first compound 3 µM): 2.01%
- viability, T/C (second compound 3.16 µM, first compound 0.00949 µM): 1.17%
- viability, T/C (second compound 3.16 µM, first compound 0.03 µM): 0.72%
- viability, T/C (second compound 3.16 µM, first compound 0.0949 µM): 1.2%
- viability, T/C (second compound 3.16 µM, first compound 0.3 µM): 1.12%
- viability, T/C (second compound 3.16 µM, first compound 0.949 µM): 1.5%
- viability, T/C (second compound 3.16 µM, first compound 3 µM): 2.18%
- viability, T/C (second compound 10 µM, first compound 0.00949 µM): 0.52%
- viability, T/C (second compound 10 µM, first compound 0.03 µM): 0.5%
- viability, T/C (second compound 10 µM, first compound 0.0949 µM): 0.74%
- viability, T/C (second compound 10 µM, first compound 0.3 µM): 0.52%
- viability, T/C (second compound 10 µM, first compound 0.949 µM): 0.45%
- viability, T/C (second compound 10 µM, first compound 3 µM): 1.52%
